Data from paper PMC10824666 (Nature Cancer, 2023).
Read-outs that look alike come from different tables or passages of the source.

How the values were obtained:
Experiment in all cases: biochemical
Set-up in all cases: Eurofins DiscoverX kinase panel, competitive binding assay at 1 uM, percent of DMSO control
Conditions in all cases: competitive binding, percent of DMSO control
MAP3K9 = MAP3K9 (Homo sapiens, UniProt P80192)
Outline: (§1)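 Competitive binding assay across a 96-kinase panel with KIF18A compounds at 1 µM; values given as percentage of control (POC), single experiment.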

MEK5 = biological target: T1, MEK5 (Homo sapiens, UniProt Q13163)
T1 construct: gene MAP2K5
T1 sequence (Q13163 1-448): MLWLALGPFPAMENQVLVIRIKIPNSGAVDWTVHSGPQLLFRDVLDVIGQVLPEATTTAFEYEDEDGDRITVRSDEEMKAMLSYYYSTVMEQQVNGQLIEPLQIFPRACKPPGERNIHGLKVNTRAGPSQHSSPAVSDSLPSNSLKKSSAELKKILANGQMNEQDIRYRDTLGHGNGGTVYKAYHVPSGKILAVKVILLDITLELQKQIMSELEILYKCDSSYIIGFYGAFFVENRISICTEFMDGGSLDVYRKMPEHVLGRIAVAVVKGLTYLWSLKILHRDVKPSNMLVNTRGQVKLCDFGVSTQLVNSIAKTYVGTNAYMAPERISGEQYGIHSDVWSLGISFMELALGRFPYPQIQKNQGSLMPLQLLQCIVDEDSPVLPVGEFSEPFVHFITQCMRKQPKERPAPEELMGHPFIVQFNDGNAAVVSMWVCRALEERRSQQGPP
Outline: as §1

PDGFRB = PDGFRB (Homo sapiens, UniProt P09619)
Outline: as §1

PLK4 = biological target: T2, PLK4 (Homo sapiens, UniProt O00444)
T2 sequence (O00444 1-970): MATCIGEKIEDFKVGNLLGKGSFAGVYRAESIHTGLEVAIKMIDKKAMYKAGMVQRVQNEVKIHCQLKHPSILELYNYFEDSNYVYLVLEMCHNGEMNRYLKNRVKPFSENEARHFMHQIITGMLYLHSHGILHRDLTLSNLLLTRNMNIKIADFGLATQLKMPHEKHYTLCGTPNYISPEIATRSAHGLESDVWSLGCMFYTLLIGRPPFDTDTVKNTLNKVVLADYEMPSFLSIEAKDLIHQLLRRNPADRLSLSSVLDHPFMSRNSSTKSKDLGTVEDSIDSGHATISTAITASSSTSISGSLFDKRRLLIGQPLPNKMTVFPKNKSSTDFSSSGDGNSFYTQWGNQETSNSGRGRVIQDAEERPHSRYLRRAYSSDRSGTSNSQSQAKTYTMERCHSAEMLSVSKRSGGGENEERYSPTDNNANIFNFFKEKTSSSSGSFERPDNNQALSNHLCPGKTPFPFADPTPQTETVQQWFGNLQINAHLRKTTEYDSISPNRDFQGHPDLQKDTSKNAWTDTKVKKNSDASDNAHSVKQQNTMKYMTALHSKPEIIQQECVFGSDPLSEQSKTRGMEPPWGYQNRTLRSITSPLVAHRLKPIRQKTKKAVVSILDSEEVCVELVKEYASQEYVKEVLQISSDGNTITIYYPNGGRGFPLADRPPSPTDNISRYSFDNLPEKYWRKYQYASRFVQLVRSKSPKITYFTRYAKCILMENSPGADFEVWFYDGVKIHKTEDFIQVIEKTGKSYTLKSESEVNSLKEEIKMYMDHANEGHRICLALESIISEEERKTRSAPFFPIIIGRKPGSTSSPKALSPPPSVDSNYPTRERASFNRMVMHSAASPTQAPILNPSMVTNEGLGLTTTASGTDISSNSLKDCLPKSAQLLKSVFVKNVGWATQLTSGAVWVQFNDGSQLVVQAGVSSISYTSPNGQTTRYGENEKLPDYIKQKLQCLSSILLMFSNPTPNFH
Outline: as §1

[1] = read-out: Kinome Profiling performed by Eurofins DiscoverX / AM-1882, 1.0 µM / POC
[2] = read-out: Kinome Profiling performed by Eurofins DiscoverX / AM-0277, 1.0 µM / POC
[3] = read-out: Kinome Profiling performed by Eurofins DiscoverX / AM-5308, 1.0 µM / POC

Chain of PDGFRB (P09619 whole entry): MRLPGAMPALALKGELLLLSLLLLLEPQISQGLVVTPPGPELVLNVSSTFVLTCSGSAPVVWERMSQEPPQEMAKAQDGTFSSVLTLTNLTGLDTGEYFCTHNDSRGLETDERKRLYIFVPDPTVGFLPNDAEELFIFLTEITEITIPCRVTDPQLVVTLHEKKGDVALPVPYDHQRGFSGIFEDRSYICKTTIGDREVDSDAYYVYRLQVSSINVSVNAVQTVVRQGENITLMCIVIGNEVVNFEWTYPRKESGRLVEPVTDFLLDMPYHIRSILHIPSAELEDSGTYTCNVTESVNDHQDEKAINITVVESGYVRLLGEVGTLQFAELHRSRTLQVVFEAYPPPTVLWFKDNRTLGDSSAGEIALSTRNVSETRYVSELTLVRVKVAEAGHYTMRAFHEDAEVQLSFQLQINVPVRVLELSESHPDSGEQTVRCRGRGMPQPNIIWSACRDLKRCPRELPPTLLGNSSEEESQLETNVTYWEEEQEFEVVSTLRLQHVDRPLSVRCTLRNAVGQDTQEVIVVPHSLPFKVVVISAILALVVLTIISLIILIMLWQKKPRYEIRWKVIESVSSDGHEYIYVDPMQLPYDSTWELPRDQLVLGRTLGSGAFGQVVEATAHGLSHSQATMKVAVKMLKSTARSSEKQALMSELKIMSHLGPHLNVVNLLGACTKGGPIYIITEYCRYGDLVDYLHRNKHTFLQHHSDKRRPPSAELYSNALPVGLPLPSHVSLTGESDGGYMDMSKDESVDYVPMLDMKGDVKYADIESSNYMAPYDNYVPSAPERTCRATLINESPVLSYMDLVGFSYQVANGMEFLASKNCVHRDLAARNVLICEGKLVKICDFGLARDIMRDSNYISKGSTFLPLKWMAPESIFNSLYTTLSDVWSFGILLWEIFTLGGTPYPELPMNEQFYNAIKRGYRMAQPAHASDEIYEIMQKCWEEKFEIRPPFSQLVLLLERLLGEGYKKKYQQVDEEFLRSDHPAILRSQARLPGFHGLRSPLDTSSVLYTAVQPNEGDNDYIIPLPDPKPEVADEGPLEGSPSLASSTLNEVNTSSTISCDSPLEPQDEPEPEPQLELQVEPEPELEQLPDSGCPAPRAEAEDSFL
Chain of MAP3K9 (P80192 whole entry): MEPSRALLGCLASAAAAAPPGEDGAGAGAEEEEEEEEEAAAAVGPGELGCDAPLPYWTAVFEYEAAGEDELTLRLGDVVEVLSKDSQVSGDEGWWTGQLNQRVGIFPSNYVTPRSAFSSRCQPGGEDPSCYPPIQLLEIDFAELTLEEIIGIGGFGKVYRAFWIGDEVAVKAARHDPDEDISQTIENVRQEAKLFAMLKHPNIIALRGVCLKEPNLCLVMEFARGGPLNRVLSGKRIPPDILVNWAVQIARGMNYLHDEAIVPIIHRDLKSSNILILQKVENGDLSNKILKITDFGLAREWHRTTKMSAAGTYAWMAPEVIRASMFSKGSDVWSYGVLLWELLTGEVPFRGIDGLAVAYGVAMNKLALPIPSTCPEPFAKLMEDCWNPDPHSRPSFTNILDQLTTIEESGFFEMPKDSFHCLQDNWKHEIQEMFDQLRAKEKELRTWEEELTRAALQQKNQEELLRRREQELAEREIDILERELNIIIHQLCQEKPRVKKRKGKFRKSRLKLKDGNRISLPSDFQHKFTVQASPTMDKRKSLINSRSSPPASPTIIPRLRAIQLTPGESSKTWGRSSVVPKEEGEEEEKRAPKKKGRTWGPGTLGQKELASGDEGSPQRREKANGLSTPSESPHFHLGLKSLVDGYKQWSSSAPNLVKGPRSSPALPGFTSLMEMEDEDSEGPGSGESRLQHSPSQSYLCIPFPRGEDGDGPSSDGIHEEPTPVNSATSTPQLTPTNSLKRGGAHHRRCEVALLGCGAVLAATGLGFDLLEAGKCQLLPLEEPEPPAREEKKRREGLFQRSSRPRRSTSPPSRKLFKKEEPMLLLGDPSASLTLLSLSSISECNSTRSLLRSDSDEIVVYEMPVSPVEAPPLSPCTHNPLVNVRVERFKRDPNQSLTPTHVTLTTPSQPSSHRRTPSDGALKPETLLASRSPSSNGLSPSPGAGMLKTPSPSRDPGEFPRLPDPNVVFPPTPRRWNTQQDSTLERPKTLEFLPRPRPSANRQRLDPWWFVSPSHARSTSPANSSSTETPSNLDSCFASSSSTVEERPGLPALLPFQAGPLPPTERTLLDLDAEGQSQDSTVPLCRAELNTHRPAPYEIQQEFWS

`CC(C)(C)NS(=O)(=O)c1cccc(NC(=O)c2ccc(S(=O)(=O)NC(C)(C)C)cc2N2CCC3(CC2)CC3)c1` [AM-1882] showed a remaining activity at 1 µM (MAP3K9; [1]) of 100%, a remaining activity at 1 µM (MEK5; [1]) of 38.5% and a remaining activity at 1 µM (PDGFRB; [1]) of 98%. For the same compound, the remaining activity at 1 µM (PLK4; [1]) was 93.5%.
`CC(C)(CO)Nc1ccc(C(=O)Nc2cccc(S(=O)(=O)C3CCCC3)c2)c(N2CCC3(CC2)CC3)n1` [AM-0277] gave a remaining activity at 1 µM (MAP3K9; [2]) of 100%, a remaining activity at 1 µM (MEK5; [2]) of 86% and a remaining activity at 1 µM (PDGFRB; [2]) of 94%. For the same compound, the remaining activity at 1 µM (PLK4; [2]) was 100%.
In the case of `C[C@@H]1CN(c2cccc(NC(=O)c3ccc(NS(=O)(=O)CCO)cc3N3CCC4(CC3)CC4)n2)CCO1` [AM-5308], the remaining activity at 1 µM (MAP3K9; [3]) is reported as 95%, the remaining activity at 1 µM (MEK5; [3]) is reported as 99.5% and the remaining activity at 1 µM (PDGFRB; [3]) is reported as 97.5%. For the same compound, the remaining activity at 1 µM (PLK4; [3]) was 87.5%.
